The source of these data is patent publication US11986466B2, “Methods of treating solid tumors with CCR2 antagonists” (CHEMOCENTRYX, INC., priority 2018, dated 2024).

The test system of data set [1] is cytokines and biomarkers produced from the TME. Briefly: Quantitative RT-PCR of cytokines and biomarkers in ear tissues. Type of data set: in vivo, C57BL/6 mice. How it is done: FIG. 5A-C. Compound 1 treatment altered the expression of cytokines and biomarkers produced from the TME. Quantitative RT-PCR was performed for the ear tissues collected on day 7. Genes that are involved in cancer inflammation and immunity crosstalk are selectively detected. Comparative expression is performed between the Compound 1 and vehicle treated groups. […] Gene expression values are normalized to endogenous expression of GAPDH (* p<05, ** p<0.01; n=3 mice per group).
FIG. 6. Compound 1 treatment altered the expression of cytokines and biomarkers produced from the TME. Quantitative RT-PCR was performed for the ear tissues collected on day 7. Genes that are involved in immune suppression and anti-inflammation are selectively detected. Comparative expression is performed between the Compound 1 and vehicle treated groups. Gene expression values are normalized to endogenous expression of GAPDH (n=3 mice per group).
Quantitative real-time PCR. RNA (<2 μg per sample) was converted into cDNA with the high-capacity first-strand cDNA Kit (Qiagen). Real-time PCR was performed on a StepOne Plus Real-time PCR system (Applied Biosystem, Carlsbad, CA). QPCR primer pairs were purchased from Integrated DNA technologies (Coralville, Iowa).

Data set [2] in a line: H&E histology and appearance of tumor-bearing ears. Type of data set: in vivo, C57BL/6 mice. Conditions: day 7, 60 mg/kg. The protocol:
(§1) FIG. 4A-D. Enhanced inflammation is associated with CCR2 antagonism by Compound 1 in the tumor microenvironment. (A, B) Ear tissues were collected from mice treated by Compound 1 (60 mg/kg) or vehicle on day 7. Representative images for HE sections and IHC staining with anti-F4/80 were shown for the ear tissues from Compound 1 and vehicle treated group. (C, D) Ears from day 7 were also analyzed by flow cytometry to quantify the numbers of the two major myeloid subpopulations in TME with antibodies for CD11b, F4/80 and Ly6G.
(§2) H&E and Histoimmunochemistry. After mouse ear tumors were surgically removed at the ear base, the ear sample was cut into two parts along the long axis and placed in RNA later for RNA extraction or into 10% formalin for hematoxylin and eosin (H&E) staining or immunohistochemical staining with purified mouse antibodies (anti-CD8 and anti-F4/80 from Biolegend, San Diego, CA).

The subject of another data set is F4/80+ macrophages. Briefly: IHC staining of ear tissue with anti-F4/80. Type of data set: in vivo, C57BL/6 mice. The note with it: day 7, 60 mg/kg oral daily. How it is done: as §1, §2
Data set [3] can be described thus: Body weight and tolerability after daily oral dosing. Type of data set: in vivo, mice. The note with it: 20 or 60 mg/kg daily oral. The protocol: (§3) (A) Mice were orally dosed for Compound 1 daily at a lower concentration (20 mg/kg per day) or a higher concentration (60 mg/kg per day) for consecutive ten days. Plasma concentration of Compound 1 was detected by chemistry analyst 24 hours after the last dosing. (B) The same groups of mice in panel (A) were recorded for body weight before the first and after the last oral administration (n=4 per group). Statistical analysis is performed by two-way ANOVA in GraphPad PRISM (GraphPad Software, San Diego, CA).
(§4) Compound 1 is an orally-bioavailable CCR2 antagonist. […] For the experimental treatment regimen, we administered Compound 1 daily via oral gavage, starting on the same day of tumor implantation (FIG. 1a). […] Thus, Compound 1 blocked tumor growth in an inflammation and macrophages dependent model of T cell lymphoma.

The subject of data set [4] is MBL2 tumors. Briefly: MBL2/DNFB mouse ear skin T cell lymphoma model: tumor growth (ear thickness, ear weight). The format is in vivo, C57BL/6 mice. The protocol:
Animals and cell lines. Female C57BL/6 mice (6-8 weeks old) were purchased from Charles River (Hollister, CA) and housed in animal facilities at University of California Davis (UCDAVIS), Sacramento, CA All animal experiments were conducted in accordance with the guidelines and approval of the Institutional Animal Care and Usage Committee at UCDAVIS. The MBL2 cell line is an established cell line derived from Moloney MuLV-induced T-cell lymphoma in C57BL/6 mice, in which the gag gene was deleted from the genome in order to lower virus-dependent immunogenicity. MBL2 cells were cultured in DMEM (Invitrogen, Carlsbad, CA) with 10% heat-inactivated FBS.
Establishment of MBL2 tumors in mice. The method of establishing mouse ear skin tumors was previously described, Briefly, PBS-washed MBL2 cells (4×10^5 in 20 μl PBS) were injected into the dermal space under the central dorsal surface of the ears and above the cartilage plane using a 28 g needle. Mice were then topically treated one time with DNFB (1-Fluoro-2, 4-dinitrobenzene, 0.5% in a vehicle consisting of 4:1 (v/v) acetone and olive oil, 10 μl/ear) (Sigma, St. Louis, CA) on dorsal ear skins. Tumor growth was assessed for maximum ear thickness using a digital caliper, or by weight for the whole tumor-bearing ears removed from ear baseline. The endpoint determination is based on the allowed maximal ear tumor size, or local erosion and bleeding, which usually occurred within two weeks after implantation.
Tumor treatment by CCR2 antagonist and/or anti-PD1. Small molecule compounds, Compound 1, either in a high concentration (6 mg/ml) or a low concentration (2 mg/ml), as well as vehicle control were all provided by ChemoCentryx (Mountain View, CA) in a lab-ready formulation. In therapeutic application, oral administration through gavage of Compound 1 or vehicle started on the same day of MBL2 cell inoculation, usually two hours apart. Compound 1 was administrated once a day (60 mg/kg for high dose or 20 mg/kg for low dose) for up to two weeks following tumor implantation. […]

Data set [5] concerns CD11b+/F4/80+ macrophages. Nature of the data set: Flow cytometry of macrophages in ear tumor microenvironment. Type of data set: in vivo, C57BL/6 mice. The source says: (§5) FIG. 3A-D. Compound 1 specifically targets macrophages, but not neutrophils. (A, B) Macrophages, defined by the CD11b+/F4/80+ cell populations in flow analysis, were presented in either percentage or absolute numbers in ear TME after only two daily doses of Compound 1 (dosages are indicated in the figure, * p<05, ** p<01 vs vehicle control). (C, D) Single cell suspension from the same tissues as in (A) were stained with antibodies for CD11b, F4/80, CCR2, Ly6G, and Ly6C. Cells gated on CD11b were further analyzed to differentiate the subpopulations. Solid circles indicate the cells which are targeted by Compound 1. Dotted circles circles indicate the cells which are not blocked by Compound 1.
(§6) Flow cytometry for mouse ear tissues, lymph nodes, and spleens. Anti-mouse CD45 (clone 30-F11), CD11b (M1/70), F4/80 (BM8), Ly6G (1A8), Ly6C (HK1.4), IFN-γ (XMG1.2) and CD8 (5H10-1) Abs were purchased from BioLegend (San Diego, CA). Ears or tumor tissues were digested to obtain skin cell suspensions as described, Lymph nodes or spleens were directly minced and filtered through cell strainers with 100 μm micron pores (Thermo Fisher Scientific, Waltham, MA). Red blood cells in the spleen samples were removed by RBC lysis buffer (BioLegend). Intracellular staining was done after incubating cells for 4 h with brefeldin A and PMA/ionomycin as described. Flow cytometry was performed using an Acuri C6 or LSR II (BD Biosciences, San Jose, CA) in conjunction with FlowJo analysis software (Tree Star, San Carlos, CA).

Data set [6] can be described thus: Plasma concentration of Compound 1 after daily oral dosing. The format is in vivo, mice. How it is done: as §3, §4
In data set [7] the test system is MBL2 tumors. Nature of the data set: Cervical draining lymph node size (lymph node metastasis) in DNFB-MBL2 model. Conditions: day 15, Compound 1 alone. The format is in vivo, C57BL/6 mice. The protocol:
(§7) FIG. 7A-E. CD8 T cells are compulsory in CCR2 antagonist-mediated anti-tumor immunity. (A) Tumor tissues were collected from mice euthanized after two weeks of treatment. Groups are as indicated in the graph. IHC staining with CD8a antibody was performed. The numbers of CD8 positive T cells were counted by taking three random images of HPF (high power field) in each section from all four mice per group. (B) Scheme for neutralizing CD8 T cells along with Compound 1 treatment. Neutralizing anti-CD8 or rat-IgG2a was administrated via intraperitoneal injection one day before MBL2 tumor inoculation followed by a second dose after 7 days. Tumor formation was examined in two weeks after the treatment with Compound 1 or vehicle. (C) Mice treated in experiment (B) were euthanized on day 3 for flow analysis of the cervical draining lymph nodes in order to determine the effect of CD8 depletion (three mice per group). (D) Mice were euthanized on day 15 after the two weeks of Compound 1/vehicle treatment with or without CD8 T cell neutralization. Ear thickness is measured for presenting tumor size. (E) Draining lymph nodes are also measured for the lymph node metastasis (n=4).
Next, we administrated neutralizing CD8 antibodies by IP injection concurrently with the Compound 1 treatment (FIG. 7B). […]

In data set [8] the test system is neutrophil-like cells (CD11b- and Ly6G-positive cells). Briefly: Flow cytometry of neutrophils / neutrophil-like cells in ear tumor microenvironment. The format is in vivo, C57BL/6 mice.
Description: as §5, §1, §6

The next data set concerns CD8+ T cells. Briefly: IHC staining of tumor tissue with CD8a antibody. Type of data set: in vivo, C57BL/6 mice. Conditions: two weeks of treatment, dose-dependent, vs untreated and vehicle. How it is done:
as §7
H&E and Histoimmunochemistry. […]

For data set [9], the system named is pancreatic ductal adenocarcinoma (PDAC). Conditions: orally dosed, phase 1b study; cited from earlier work.
Setting [10] is: day 7, vs vehicle, normalized to GAPDH.
[11] abbreviates: day 15, 20 or 60 mg/kg oral daily, vs untreated or vehicle.
The mark [12] stands for this setting: ear tumors, treated two days after tumor implantation, 20 or 60 mg/kg oral.

“Also recorded” adds a separate entry of the source. Bounds are passed on as bounds.

As to `C[C@H]1CN([C@@H]2CC[C@@](C(=O)N3COc4c(cc(C(F)(F)F)cc4C(F)(F)F)C3)(C3CC3)OC2)CC[C@@H]1c1cccc(C(=O)O)c1` [Compound 1], in data set [1] (day 7, vs controls), the “IL-10 expression in ears” value is listed as “similarly expressed” and the “TGF-beta expression in ears” value is given as “similarly expressed”. For the same compound, in data set [1] (day 7, vs vehicle), the “CCL2 expression in the TME” value is reported as “Upregulation”, the “CCL7 expression in the TME” value is “Upregulation”, the “CXCL1/2 expression in the TME” value is listed as “noticeably increased” and the “IL-1beta expression in ears” value is on record as “upregulated to variable extents”. For the same compound, in data set [1] (day 7, vs vehicle), the “IL-6 expression in ears” value is reported as “upregulated to variable extents”, the “IL-12 expression in ears” value is recorded as “found to increase”, the “IL-17a expression in ears” value is given as “upregulated to variable extents” and the “S100A8/9 expression in the TME” value is “noticeably increased”. Further, the “granzyme B expression in ears” value in [1] (day 7, vs vehicle) is “consistent upregulation”. Also, in data set [1] (setting [10]), the “CXCL10 mRNA level in ears” value is on record as “significantly increased”, the “CXCL11 mRNA level in ears” value is given as “significantly increased” and the “IFN-γ mRNA level in ears” value is listed as “significantly increased”. In data set [2], the tumor cell necrosis result is on record as “results in tumor cell necrosis”. The “macrophages in the TME by IHC anti-F4/80” value in the data set on F4/80+ macrophages is given as “largely absent”. Also, the “tolerability / side effects” value in data set [3] is listed as “well tolerated; also recorded: without side effects”. The weight changes in data set [3] (ten days) is on record as at most 20%. Further, in the data set with MBL2 tumors [4] (setting [11]), the ear thickness result is recorded as “significantly reduced” and the ear weight entry is recorded as “significantly reduced”. Further, the “tumor growth / tumor size” value in the data set on MBL2 tumors [4] (single agent, two weeks of treatment, vs vehicle/control) was “smaller and sometimes nearly eradicated; also recorded: visible reduction in tumor growth; also recorded: inhibits tumor growth; also recorded: effectively delay the tumor growth, but was unable to eliminate the tumors”. In addition, in [5] (setting [12]), the “CD11b+/F4/80+ macrophages, absolute numbers in whole ears” value is reported as “significantly decreased” and the “CD11b+/F4/80+ macrophages, percentage values of live cells” value is reported as “significantly decreased”. Also, the “macrophages in the skin (flow cytometry)” value in [5] (oral administration for two days after tumor initiation, vehicle 17.7%) is 2.78 % of total leukocytes. In [6] (20 or 60 mg/kg daily oral gavage for ten days, 24 hours after last dosing), the plasma concentration result is on record as “correlated well to the feeding doses; also recorded: dose-dependently absorptive”. Also, the oral bioavailability result in [6] (oral) was “orally-bioavailable”. Also, the “cervical draining lymph node size” value with MBL2 tumors [7] is given as “reduction of cervical LN size”. Besides, in data set [8] (after two daily doses), the “accumulation of neutrophils in the TME” value is “not blocked” and the “relative abundance of neutrophils in the TME” value is “increased”. Besides, the “numbers of neutrophils / neutrophil-like cells in the TME” value in data set [8] (one week (day 7) of treatment, 60 mg/kg oral daily, vs vehicle, 60 mg/kg) is “significantly larger numbers of neutrophils; also recorded: significant increase”. Also, the “numbers of CD8+ T cells in the tumor/TME (IHC)” value in the data set on CD8+ T cells is “significantly larger numbers of CD8+ T cells; also recorded: markedly increased”.

Turning to `O=C(NCC(=O)N1CC[C@H](N[C@H]2CC[C@@](O)(c3ccc(-c4ncccn4)cn3)CC2)C1)c1cccc(C(F)(F)F)c1` [PF-04136309], in data set [9], the TAM infiltration result is given as “reduction in TAM infiltration” and the anti-tumor immune response entry was “endogenous anti-tumor immune response”.
